Experimental data published in ChEMBL document CHEMBL1201862, “PubChem BioAssay data set” (2004).
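Growth conditions: 96-well plates. Treatment: test compound, 48 hours, 5 concentrations. Analysis: linear interpolation between bracketing concentrations; unreached endpoints set to highest concentration. Here, GI50 denotes the concentration required for 50% inhibition of growth.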 The source made the active and inactive calls. Rule as the data show it: active = GI50 up to about 1.1 µM and inactive = higher.

Tests used:
Experiment in all cases: NCI-60 cell line screen, 48 h
SN12C = tested on: SN12C
SF-539 = tested on: SF-539
OVCAR-3 = tested on: OVCAR-3
SR = tested on: SR
ACHN = tested on: ACHN
SF-295 = tested on: SF-295
SK-MEL-5 = tested on: SK-MEL-5
MCF7 = tested on: MCF7
HCC 2998 = tested on: HCC 2998
RXF 393 = tested on: RXF 393
A549 = tested on: A549
SNB-19 = tested on: SNB-19
LOX IMVI = tested on: LOX IMVI
SW-620 = tested on: SW-620
PC-3 = tested on: PC-3
NCI/ADR-RES = tested on: NCI/ADR-RES
UACC-62 = tested on: UACC-62
OVCAR-4 = tested on: OVCAR-4
SF-268 = tested on: SF-268
MDA-MB-231 = tested on: MDA-MB-231

O=C1NN=C2C=C(c3ccc(Cl)cc3)CC(c3cccc(Br)c3)C12 (stereo not given)
GI50 (SN12C): > 100 µM (inactive) | GI50 (SF-539): > 100 µM (inactive) | GI50 (OVCAR-3): 42.1 µM (inactive) | GI50 (SR): 38.3 µM (inactive) | GI50 (ACHN): 33.7 µM (inactive) | GI50 (SF-295): 91.4 µM (inactive) | GI50 (SK-MEL-5): > 100 µM (inactive) | GI50 (MCF7): 44 µM (inactive) | GI50 (HCC 2998): 38.7 µM (inactive) | GI50 (RXF 393): 62.8 µM (inactive) | GI50 (A549): 37.4 µM (inactive) | GI50 (SNB-19): 21.2 µM (inactive) | GI50 (LOX IMVI): 46.9 µM (inactive) | GI50 (SW-620): 81.8 µM (inactive) | GI50 (PC-3): 53.7 µM (inactive) | GI50 (NCI/ADR-RES): > 100 µM (inactive) | GI50 (UACC-62): 87.3 µM (inactive) | GI50 (OVCAR-4): > 100 µM (inactive) | GI50 (SF-268): 68.5 µM (inactive) | GI50 (MDA-MB-231): 30.4 µM (inactive)

COC(=O)CC1(O)C(C=C(C)C)C(C(=O)OC)C(=O)C(C(=O)OC)C1C(=O)OC (stereo not given)
GI50 (SN12C): > 100 µM (inactive) | GI50 (SF-539): > 100 µM (inactive) | GI50 (OVCAR-3): > 100 µM (inactive) | GI50 (SR): > 100 µM (inactive) | GI50 (ACHN): > 100 µM (inactive) | GI50 (SF-295): > 100 µM (inactive) | GI50 (SK-MEL-5): > 100 µM (inactive) | GI50 (MCF7): > 100 µM (inactive) | GI50 (HCC 2998): > 100 µM (inactive) | GI50 (RXF 393): > 100 µM (inactive) | GI50 (A549): > 100 µM (inactive) | GI50 (SNB-19): > 100 µM (inactive) | GI50 (LOX IMVI): > 100 µM (inactive) | GI50 (SW-620): > 100 µM (inactive) | GI50 (PC-3): > 100 µM (inactive) | GI50 (NCI/ADR-RES): 38.5 µM (inactive) | GI50 (UACC-62): > 100 µM (inactive) | GI50 (OVCAR-4): > 100 µM (inactive) | GI50 (SF-268): > 100 µM (inactive) | GI50 (MDA-MB-231): > 100 µM (inactive)

O=C(O)c1cc2c(s1)C(=O)c1sccc1C2=O
GI50 (SN12C): 2.73 µM (inactive) | GI50 (SF-539): 1.95 µM (inactive) | GI50 (OVCAR-3): 4.81 µM (inactive) | GI50 (SR): 2.81 µM (inactive) | GI50 (ACHN): 8.43 µM (inactive) | GI50 (SF-295): 2.26 µM (inactive) | GI50 (SK-MEL-5): 1.82 µM (inactive) | GI50 (MCF7): 2.8 µM (inactive) | GI50 (HCC 2998): 18.7 µM (inactive) | GI50 (RXF 393): 6.87 µM (inactive) | GI50 (A549): 4.25 µM (inactive) | GI50 (SNB-19): 5.48 µM (inactive) | GI50 (LOX IMVI): 1.32 µM (inactive) | GI50 (SW-620): 2.31 µM (inactive) | GI50 (PC-3): 9.82 µM (inactive) | GI50 (NCI/ADR-RES): 5.4 µM (inactive) | GI50 (UACC-62): 2.08 µM (inactive) | GI50 (OVCAR-4): 6.7 µM (inactive) | GI50 (SF-268): 5.24 µM (inactive) | GI50 (MDA-MB-231): 9.73 µM (inactive)

O=P1(Cc2ccccc2)c2ccccc2-c2ccccc21
GI50 (SN12C): 14.2 µM (inactive) | GI50 (SF-539): 6.21 µM (inactive) | GI50 (OVCAR-3): 1.06 µM (active) | GI50 (SR): 3.89 µM (inactive) | GI50 (ACHN): 11.2 µM (inactive) | GI50 (SF-295): 5.98 µM (inactive) | GI50 (SK-MEL-5): 1.46 µM (inactive) | GI50 (MCF7): 3.08 µM (inactive) | GI50 (HCC 2998): 1.51 µM (inactive) | GI50 (RXF 393): 9.42 µM (inactive) | GI50 (A549): 8.81 µM (inactive) | GI50 (SNB-19): 3.69 µM (inactive) | GI50 (LOX IMVI): 4.74 µM (inactive) | GI50 (SW-620): 3.61 µM (inactive) | GI50 (PC-3): 2.82 µM (inactive) | GI50 (NCI/ADR-RES): > 100 µM (inactive) | GI50 (UACC-62): 1.96 µM (inactive) | GI50 (OVCAR-4): 11 µM (inactive) | GI50 (SF-268): 9.12 µM (inactive) | GI50 (MDA-MB-231): 20.7 µM (inactive)

Cc1cc2c(cc1C)NC1=C(O)C(c3c[nH]c4ccc(COc5ccccc5)cc34)OC1=N2 (stereo not given)
GI50 (SN12C): > 100 µM (inactive) | GI50 (SF-539): 27.4 µM (inactive) | GI50 (OVCAR-3): > 100 µM (inactive) | GI50 (SR): 65.9 µM (inactive) | GI50 (ACHN): 45.7 µM (inactive) | GI50 (SF-295): 33.6 µM (inactive) | GI50 (SK-MEL-5): > 100 µM (inactive) | GI50 (MCF7): 72.1 µM (inactive) | GI50 (HCC 2998): 17.1 µM (inactive) | GI50 (RXF 393): 39.6 µM (inactive) | GI50 (A549): > 100 µM (inactive) | GI50 (SNB-19): 42.2 µM (inactive) | GI50 (LOX IMVI): > 100 µM (inactive) | GI50 (SW-620): > 100 µM (inactive) | GI50 (PC-3): > 100 µM (inactive) | GI50 (NCI/ADR-RES): > 100 µM (inactive) | GI50 (UACC-62): > 100 µM (inactive) | GI50 (OVCAR-4): > 100 µM (inactive) | GI50 (SF-268): 64.9 µM (inactive) | GI50 (MDA-MB-231): 22.3 µM (inactive)

c1cc2cc3c4c5c(cc6ccc7cc8cc9c%10c8c8c7c6c5c8c5c%10c(c1C9N1CCOCCOCCOCCOCCOCC1)c2c45)C3 (stereo not given)
GI50 (SN12C): > 100 µM (inactive) | GI50 (SF-539): > 100 µM (inactive) | GI50 (OVCAR-3): > 100 µM (inactive) | GI50 (SR): > 100 µM (inactive) | GI50 (ACHN): > 100 µM (inactive) | GI50 (SF-295): > 100 µM (inactive) | GI50 (SK-MEL-5): 78.9 µM (inactive) | GI50 (MCF7): > 100 µM (inactive) | GI50 (HCC 2998): > 100 µM (inactive) | GI50 (RXF 393): > 100 µM (inactive) | GI50 (A549): > 100 µM (inactive) | GI50 (SNB-19): > 100 µM (inactive) | GI50 (LOX IMVI): > 100 µM (inactive) | GI50 (SW-620): > 100 µM (inactive) | GI50 (PC-3): > 100 µM (inactive) | GI50 (NCI/ADR-RES): > 100 µM (inactive) | GI50 (UACC-62): > 100 µM (inactive) | GI50 (OVCAR-4): > 100 µM (inactive) | GI50 (SF-268): > 100 µM (inactive) | GI50 (MDA-MB-231): > 100 µM (inactive)
